“And” between values parts separate entries of the source, which are not always exact repeats. Equal values may be shown once.
Conditions: Liquid

CC(C)CCCCCCCOC(=O)c1ccccc1C(=O)OCCCCCCCC(C)C
Conditions	mass density, SVM3000 rotational viscometer	viscosity, Rotational Automated Viscometer
278.15 K	977.3 kg/m3 and 977.5 kg/m3 and 977.1 kg/m3	404.6 mPa·s and 413.1 mPa·s and 412.2 mPa·s
283.15 K	973.8 kg/m3 and 974 kg/m3 and 973.5 kg/m3	261.2 mPa·s and 267 mPa·s and 266.2 mPa·s
288.15 K	970.2 kg/m3 and 970.4 kg/m3 and 969.9 kg/m3	175.9 mPa·s and 179.4 mPa·s and 178.9 mPa·s
293.15 K	966.7 kg/m3 and 966.9 kg/m3 and 966.4 kg/m3	122.3 mPa·s and 124.5 mPa·s and 124.4 mPa·s
298.15 K	963.2 kg/m3 and 963.4 kg/m3 and 962.9 kg/m3	87.52 mPa·s and 89.06 mPa·s and 88.94 mPa·s
303.15 K	959.7 kg/m3 and 959.8 kg/m3 and 959.4 kg/m3	64.31 mPa·s and 65.45 mPa·s and 65.32 mPa·s
308.15 K	956.2 kg/m3 and 956.3 kg/m3 and 955.9 kg/m3	48.46 mPa·s and 49.29 mPa·s and 49.16 mPa·s
313.15 K	952.7 kg/m3 and 952.8 kg/m3 and 952.4 kg/m3	37.35 mPa·s and 37.97 mPa·s and 37.87 mPa·s
318.15 K	949.2 kg/m3 and 949.3 kg/m3 and 948.9 kg/m3	29.38 mPa·s and 29.83 mPa·s and 29.75 mPa·s
323.15 K	945.7 kg/m3 and 945.8 kg/m3 and 945.3 kg/m3	23.51 mPa·s and 23.87 mPa·s and 23.79 mPa·s
328.15 K	942.2 kg/m3 and 941.8 kg/m3	19.13 mPa·s and 19.41 mPa·s and 19.35 mPa·s

Conditions	mass density, Vibrating tube method	viscosity, Falling or rolling sphere viscometry
283.15 K, 100 kPa	973.4 kg/m3 and 973.5 kg/m3 and 973.1 kg/m3	–
283.15 K, 1000 kPa	973.7 kg/m3 and 974 kg/m3 and 973.6 kg/m3	–
283.15 K, 5000 kPa	975.9 kg/m3 and 976.2 kg/m3 and 975.7 kg/m3	–
283.15 K, 10000 kPa	978.4 kg/m3 and 978.8 kg/m3 and 978.3 kg/m3	–
283.15 K, 20000 kPa	983.5 kg/m3 and 983.9 kg/m3 and 983.4 kg/m3	–
283.15 K, 30000 kPa	988.3 kg/m3 and 988.6 kg/m3 and 988.1 kg/m3	–
283.15 K, 40000 kPa	992.8 kg/m3 and 993.1 kg/m3 and 992.7 kg/m3	–
283.15 K, 50000 kPa	997.2 kg/m3 and 997.5 kg/m3 and 997 kg/m3	–
283.15 K, 60000 kPa	1001.4 kg/m3 and 1001.7 kg/m3 and 1001.3 kg/m3	–
283.15 K, 70000 kPa	1005.4 kg/m3 and 1005.8 kg/m3	–
298.15 K, 100 kPa	963 kg/m3 and 963.2 kg/m3 and 962.8 kg/m3	–
298.15 K, 1000 kPa	963.4 kg/m3 and 963.8 kg/m3 and 963.3 kg/m3	–
298.15 K, 5000 kPa	965.7 kg/m3 and 966.1 kg/m3	–
298.15 K, 10000 kPa	968.4 kg/m3 and 968.9 kg/m3 and 968.5 kg/m3	–
298.15 K, 20000 kPa	973.7 kg/m3 and 974.2 kg/m3 and 973.8 kg/m3	–
298.15 K, 30000 kPa	978.7 kg/m3 and 979.1 kg/m3	–
298.15 K, 40000 kPa	983.4 kg/m3 and 983.8 kg/m3	–
298.15 K, 50000 kPa	988 kg/m3 and 988.3 kg/m3 and 987.9 kg/m3	–
298.15 K, 60000 kPa	992.4 kg/m3 and 992.8 kg/m3 and 992.3 kg/m3	–
298.15 K, 70000 kPa	996.6 kg/m3 and 997 kg/m3	–
303.15 K, 100 kPa	–	65 mPa·s and 64.6 mPa·s
303.15 K, 1000 kPa	–	66.4 mPa·s and 66 mPa·s
303.15 K, 5000 kPa	–	72.9 mPa·s and 72.6 mPa·s
303.15 K, 10000 kPa	–	82 mPa·s and 81.7 mPa·s
303.15 K, 20000 kPa	–	103 mPa·s
303.15 K, 30000 kPa	–	130 mPa·s and 129 mPa·s
303.15 K, 40000 kPa	–	162 mPa·s
303.15 K, 50000 kPa	–	202 mPa·s and 201 mPa·s
303.15 K, 60000 kPa	–	251 mPa·s and 250 mPa·s
313.15 K, 100 kPa	–	38 mPa·s and 38.5 mPa·s
313.15 K, 1000 kPa	–	38.7 mPa·s and 39.3 mPa·s
313.15 K, 5000 kPa	–	42.2 mPa·s and 42.8 mPa·s
313.15 K, 10000 kPa	–	46.9 mPa·s and 47.6 mPa·s
313.15 K, 20000 kPa	–	57.8 mPa·s and 58.8 mPa·s
313.15 K, 30000 kPa	–	71.1 mPa·s and 72.4 mPa·s
313.15 K, 40000 kPa	–	87.2 mPa·s and 88.8 mPa·s
313.15 K, 50000 kPa	–	107 mPa·s and 109 mPa·s
313.15 K, 60000 kPa	–	130 mPa·s and 132 mPa·s
323.15 K, 100 kPa	945.4 kg/m3 and 945.7 kg/m3 and 945.2 kg/m3	–
323.15 K, 1000 kPa	945.8 kg/m3 and 946.3 kg/m3	–
323.15 K, 5000 kPa	948.4 kg/m3 and 948.8 kg/m3 and 948.3 kg/m3	–
323.15 K, 10000 kPa	951.5 kg/m3 and 951.9 kg/m3 and 951.4 kg/m3	–
323.15 K, 20000 kPa	957.4 kg/m3 and 957.9 kg/m3	–
323.15 K, 30000 kPa	962.9 kg/m3 and 963.3 kg/m3 and 962.8 kg/m3	–
323.15 K, 40000 kPa	968.1 kg/m3 and 968.5 kg/m3 and 968 kg/m3	–
323.15 K, 50000 kPa	973.1 kg/m3 and 973.4 kg/m3 and 973 kg/m3	–
323.15 K, 60000 kPa	977.8 kg/m3 and 978.1 kg/m3 and 977.7 kg/m3	–
323.15 K, 70000 kPa	982.3 kg/m3 and 982.6 kg/m3 and 982.2 kg/m3	–
333.15 K, 100 kPa	938.4 kg/m3 and 938.7 kg/m3 and 938.2 kg/m3	16.1 mPa·s and 15.5 mPa·s and 16 mPa·s
333.15 K, 1000 kPa	938.9 kg/m3 and 939.3 kg/m3 and 938.8 kg/m3	16.4 mPa·s and 15.7 mPa·s and 16.3 mPa·s
333.15 K, 5000 kPa	941.6 kg/m3 and 942 kg/m3 and 941.5 kg/m3	17.7 mPa·s and 17 mPa·s and 17.6 mPa·s
333.15 K, 10000 kPa	–	19.5 mPa·s and 18.6 mPa·s and 19.3 mPa·s

Source: the NIST ThermoML archive (doi:10.1016/j.jct.2009.04.002)
